Test results published in patent publication US20230278972A1, “SUBSTITUTED HALOALKYL SULFONANILIDE HERBICIDES” (FMC Corporation, priority 2020, published 2023).

What was measured:
Type in all cases: in vivo
[1] = tested on: ragweed (common ragweed, Ambrosia artemisiifolia); assay: Test A preemergence, ragweed; conditions: Preemergence; for Ragweed plant response rating: 125 g ai/ha, visual injury on 0 to 100 scale (0 no effect, 100 complete control), approximately 10 days; for Plant response rating, Ragweed: 0 to 100 scale (0 no effect, 100 complete control)
Method in brief: (§1)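 Compounds in non-phytotoxic solvent with surfactant. Soil: loam/sand. Preemergence via directed soil spray after seeding; postemergence on seedlings 2–10 cm, one- to two-leaf.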

[2] = tested on: wheat (Triticum aestivum); assay: Test A postemergence, wheat; conditions: Postemergence, 0 to 100 scale (0 no effect, 100 complete control)
Method in brief: (§2)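 Postemergence ratings come from foliar sprays onto one- to two-leaf plants of 2 to 10 cm grown in loam/sand; preemergence ratings come from a directed spray onto the soil of newly seeded pots. Formulation was a surfactant-containing non-phytotoxic solvent blend.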

kochia (Bassia scoparia) [3] = assay: Test A preemergence, kochia; conditions: Preemergence; for Kochia plant response rating: 125 g ai/ha, visual injury on 0 to 100 scale (0 no effect, 100 complete control), approximately 10 days; for Plant response rating, Kochia: 0 to 100 scale (0 no effect, 100 complete control)
Method in brief: as §1

[4] = tested on: ragweed (common ragweed, Ambrosia artemisiifolia); assay: Test A postemergence, ragweed; conditions: Postemergence, 0 to 100 scale (0 no effect, 100 complete control)
Method in brief: as §1

[5] = tested on: barnyardgrass (Echinochloa crus-galli); assay: Test A postemergence, barnyardgrass; conditions: Postemergence, 0 to 100 scale (0 no effect, 100 complete control)
Method in brief: as §2

kochia (Bassia scoparia) [6] = assay: Test A postemergence, kochia; conditions: Postemergence, 0 to 100 scale (0 no effect, 100 complete control)
Method in brief: as §1

[7] = tested on: Ryegrass, Italian (Italian ryegrass, Lolium multiflorum); assay: Test A postemergence, Ryegrass, Italian; conditions: Postemergence, 0 to 100 scale (0 no effect, 100 complete control)
Method in brief: as §1

corn (Zea mays) = assay: Test A postemergence, corn; conditions: Postemergence, 0 to 100 scale (0 no effect, 100 complete control)
Method in brief: as §1

[8] = tested on: barnyardgrass (Echinochloa crus-galli); assay: Test A preemergence, barnyardgrass; conditions: Preemergence; for Barnyardgrass plant response rating: 125 g ai/ha, visual injury on 0 to 100 scale (0 no effect, 100 complete control), approximately 10 days; for Plant response rating, Barnyardgrass: 0 to 100 scale (0 no effect, 100 complete control)
Method in brief: as §1

[9] = tested on: pigweed (Amaranthus retroflexus); assay: Test A postemergence, pigweed; conditions: Postemergence, 0 to 100 scale (0 no effect, 100 complete control)
Method in brief: as §1

[10] = tested on: galium (catchweed bedstraw, Galium aparine); assay: Test A postemergence, galium; conditions: Postemergence, 0 to 100 scale (0 no effect, 100 complete control)
Method in brief: as §2

[11] = tested on: blackgrass (Alopecurus myosuroides); assay: Test A postemergence, blackgrass; conditions: Postemergence, 0 to 100 scale (0 no effect, 100 complete control)
Method in brief: as §1

[12] = tested on: pigweed (Amaranthus retroflexus); assay: Test A preemergence, pigweed; conditions: for Pigweed plant response rating: 125 g ai/ha, visual injury on 0 to 100 scale (0 no effect, 100 complete control), approximately 10 days; for Plant response rating, Pigweed: 0 to 100 scale (0 no effect, 100 complete control)
Method in brief: as §2

[13] = tested on: Foxtail, Giant (giant foxtail, Setaria faberi); assay: Test A preemergence, Foxtail, Giant; conditions: Preemergence; for Foxtail, Giant plant response rating: 125 g ai/ha, visual injury on 0 to 100 scale (0 no effect, 100 complete control), approximately 10 days; for Plant response rating, Foxtail, Giant: 0 to 100 scale (0 no effect, 100 complete control)
Method in brief: as §1

[14] = tested on: Foxtail, Giant (giant foxtail, Setaria faberi); assay: Test A postemergence, Foxtail, Giant; conditions: Postemergence, 0 to 100 scale (0 no effect, 100 complete control)
Method in brief: as §1

[15] = tested on: Ryegrass, Italian (Italian ryegrass, Lolium multiflorum); assay: Test A preemergence, Ryegrass, Italian; conditions: Preemergence; for Ryegrass, Italian plant response rating: 125 g ai/ha, visual injury on 0 to 100 scale (0 no effect, 100 complete control), approximately 10 days; for Plant response rating, Ryegrass, Italian: 0 to 100 scale (0 no effect, 100 complete control)
Method in brief: as §1

[16] = 125 g ai/ha, visual injury approx. 10 days
[17] = 500 g ai/ha, visual injury vs untreated controls after approx. 10 days
[18] = 31 g ai/ha, visual injury, approx. 10 days

Row | Compound | Ragweed plant response rating [1] | Plant response rating, Wheat [2, 16] | Kochia plant response rating (kochia (Bassia scoparia) [3]) | Plant response rating, Ragweed [4, 16] | Plant response rating, Barnyardgrass [5, 16] | Plant response rating, Kochia (kochia (Bassia scoparia) [6]; [16]) | Plant response rating, Ryegrass, Italian [7, 16] | Plant response rating, Corn (corn (Zea mays); [16]) | Barnyardgrass plant response rating [8] | Plant response rating, Pigweed [9, 16] | Plant response rating, Galium [10, 16] | Plant response rating, Blackgrass [11, 16] | Pigweed plant response rating [12] | Foxtail, Giant plant response rating [13] | Plant response rating, Foxtail, Giant [14, 16] | Ryegrass, Italian plant response rating [15] | Plant response rating, Ragweed [1, 18] | Plant response rating, Wheat ([2]; 31 g ai/ha) | Plant response rating, Kochia (kochia (Bassia scoparia) [3]; [18]) | Plant response rating, Ragweed ([4]; 31 g ai/ha) | also measured
1 | Cc1ccc(=O)n(-c2cc(NS(=O)(=O)C(F)(F)F)c(C)cc2C)n1 [Compound 85] | 0 | 0 | 60 | 20 | 30 | 0 | 40 | 0 | 70 | 20 | 60 | 0 | 100 | 10 | 0 | 0 |  |  |  |  | Plant response rating, Ragweed ([1]; 500 g ai/ha): 0; Wheat plant response rating [2, 17]: 0; Plant response rating, Kochia (kochia (Bassia scoparia) [3]; 500 g ai/ha): 70; Ragweed plant response rating [4, 17]: 30; Barnyardgrass plant response rating [5, 17]: 20; Kochia plant response rating (kochia (Bassia scoparia) [6]; [17]): 0; Ryegrass, Italian plant response rating [7, 17]: 30; Corn plant response rating (corn (Zea mays); [17]): 0; Plant response rating, Barnyardgrass ([8]; 500 g ai/ha): 70; Pigweed plant response rating [9, 17]: 40; Galium plant response rating [10, 17]: 0; Blackgrass plant response rating [11, 17]: 0; Plant response rating, Pigweed ([12]; 500 g ai/ha): 100; Plant response rating, Foxtail, Giant ([13]; 500 g ai/ha): 90; Foxtail, Giant plant response rating [14, 17]: 0; Plant response rating, Ryegrass, Italian ([15]; 500 g ai/ha): 30
2 | COC1CCCN(C(=O)c2cc(N(C(=O)C(C)C)S(=O)(=O)C(F)(F)F)c(C)cc2C)C1 (centres unmarked) [Compound 91] | 20 | 60 | 60 | 40 | 0 | 10 | 10 | 0 | 90 | 40 | 70 | 0 | 100 | 100 | 10 | 50 | 0 | 10 | 0 | 0 | Plant response rating, Barnyardgrass ([5]; 31 g ai/ha): 0; Plant response rating, Kochia (kochia (Bassia scoparia) [6]; 31 g ai/ha): 10; Plant response rating, Ryegrass, Italian ([7]; 31 g ai/ha): 0; Plant response rating, Corn (corn (Zea mays); 31 g ai/ha): 0; Plant response rating, Barnyardgrass [8, 18]: 0; Plant response rating, Pigweed ([9]; 31 g ai/ha): 0; Plant response rating, Galium ([10]; 31 g ai/ha): 70; Plant response rating, Blackgrass ([11]; 31 g ai/ha): 0; Plant response rating, Pigweed [12, 18]: 60; Plant response rating, Foxtail, Giant [13, 18]: 20; Plant response rating, Foxtail, Giant ([14]; 31 g ai/ha): 0; Plant response rating, Ryegrass, Italian [15, 18]: 30
3 | COC1CCCN(C(=O)c2cc(N(C(C)=O)S(=O)(=O)C(F)(F)F)c(C)cc2C)C1 (centres unmarked) [Compound 93] | 70 | 60 | 50 | 30 | 60 | 30 | 20 | 20 | 80 | 50 | 80 | 70 | 100 | 80 | 10 | 80 | 0 | 30 | 0 | 30 | Plant response rating, Barnyardgrass ([5]; 31 g ai/ha): 0; Plant response rating, Kochia (kochia (Bassia scoparia) [6]; 31 g ai/ha): 10; Plant response rating, Ryegrass, Italian ([7]; 31 g ai/ha): 0; Plant response rating, Corn (corn (Zea mays); 31 g ai/ha): 0; Plant response rating, Barnyardgrass [8, 18]: 0; Plant response rating, Pigweed ([9]; 31 g ai/ha): 30; Plant response rating, Galium ([10]; 31 g ai/ha): 80; Plant response rating, Blackgrass ([11]; 31 g ai/ha): 20; Plant response rating, Pigweed [12, 18]: 50; Plant response rating, Foxtail, Giant [13, 18]: 60; Plant response rating, Foxtail, Giant ([14]; 31 g ai/ha): 0; Plant response rating, Ryegrass, Italian [15, 18]: 0
4 | CO[C@@H]1CCCN(C(=O)c2cc(NS(=O)(=O)C(F)(F)F)c(C)cc2C)C1 [Compound 94] | 30 | 50 | 60 | 40 | 60 | 50 | 50 | 20 | 90 | 80 | 90 | 20 | 100 | 100 | 30 | 90 | 0 | 10 | 0 | 10 | Plant response rating, Barnyardgrass ([5]; 31 g ai/ha): 20; Plant response rating, Kochia (kochia (Bassia scoparia) [6]; 31 g ai/ha): 10; Plant response rating, Ryegrass, Italian ([7]; 31 g ai/ha): 20; Plant response rating, Corn (corn (Zea mays); 31 g ai/ha): 0; Plant response rating, Barnyardgrass [8, 18]: 10; Plant response rating, Pigweed ([9]; 31 g ai/ha): 50; Plant response rating, Galium ([10]; 31 g ai/ha): 70; Plant response rating, Blackgrass ([11]; 31 g ai/ha): 0; Plant response rating, Pigweed [12, 18]: 100; Plant response rating, Foxtail, Giant [13, 18]: 50; Plant response rating, Foxtail, Giant ([14]; 31 g ai/ha): 0; Plant response rating, Ryegrass, Italian [15, 18]: 30
5 | CO[C@@H]1CCCN(C(=O)c2cc(N(S(=O)(=O)C(F)(F)F)S(=O)(=O)C(F)(F)F)c(C)cc2C)C1 [Compound 95] | 60 | 10 | 10 | 0 | 30 | 30 | 0 | 20 | 80 | 80 | 80 | 0 | 90 | 100 | 0 | 90 | 0 | 0 | 0 | 0 | Plant response rating, Barnyardgrass ([5]; 31 g ai/ha): 0; Plant response rating, Kochia (kochia (Bassia scoparia) [6]; 31 g ai/ha): 10; Plant response rating, Ryegrass, Italian ([7]; 31 g ai/ha): 0; Plant response rating, Corn (corn (Zea mays); 31 g ai/ha): 0; Plant response rating, Barnyardgrass [8, 18]: 10; Plant response rating, Pigweed ([9]; 31 g ai/ha): 40; Plant response rating, Galium ([10]; 31 g ai/ha): 40; Plant response rating, Blackgrass ([11]; 31 g ai/ha): 0; Plant response rating, Pigweed [12, 18]: 70; Plant response rating, Foxtail, Giant [13, 18]: 90; Plant response rating, Foxtail, Giant ([14]; 31 g ai/ha): 0; Plant response rating, Ryegrass, Italian [15, 18]: 20
6 | COC1CCCN(C(=O)c2cc(N(COC(C)=O)S(=O)(=O)C(F)(F)F)c(C)cc2C)C1 (centres unmarked) [Compound 96] | 30 | 40 | 0 | 40 | 30 | 20 | 20 | 10 | 70 | 30 | 80 | 0 | 90 | 80 | 10 | 80 | 0 | 0 | 0 | 30 | Plant response rating, Barnyardgrass ([5]; 31 g ai/ha): 0; Plant response rating, Kochia (kochia (Bassia scoparia) [6]; 31 g ai/ha): 10; Plant response rating, Ryegrass, Italian ([7]; 31 g ai/ha): 0; Plant response rating, Corn (corn (Zea mays); 31 g ai/ha): 10; Plant response rating, Barnyardgrass [8, 18]: 10; Plant response rating, Pigweed ([9]; 31 g ai/ha): 30; Plant response rating, Galium ([10]; 31 g ai/ha): 80; Plant response rating, Blackgrass ([11]; 31 g ai/ha): 0; Plant response rating, Pigweed [12, 18]: 20; Plant response rating, Foxtail, Giant [13, 18]: 40; Plant response rating, Foxtail, Giant ([14]; 31 g ai/ha): 0; Plant response rating, Ryegrass, Italian [15, 18]: 0
7 | COC1CCCN(C(=O)c2cc(NS(=O)(=O)C(F)(F)F)c(C)c(F)c2C)C1 (centres unmarked) [Compound 98] | 80 | 40 | 40 | 60 | 50 | 20 | 30 | 10 | 90 | 80 | 90 | 0 | 100 | 100 | 20 | 50 | 30 | 0 | 40 | 50 | Plant response rating, Barnyardgrass ([5]; 31 g ai/ha): 0; Plant response rating, Kochia (kochia (Bassia scoparia) [6]; 31 g ai/ha): 10; Plant response rating, Ryegrass, Italian ([7]; 31 g ai/ha): 30; Plant response rating, Corn (corn (Zea mays); 31 g ai/ha): 0; Plant response rating, Barnyardgrass [8, 18]: 0; Plant response rating, Pigweed ([9]; 31 g ai/ha): 30; Plant response rating, Galium ([10]; 31 g ai/ha): 60; Plant response rating, Blackgrass ([11]; 31 g ai/ha): 20; Plant response rating, Pigweed [12, 18]: 70; Plant response rating, Foxtail, Giant [13, 18]: 80; Plant response rating, Foxtail, Giant ([14]; 31 g ai/ha): 0; Plant response rating, Ryegrass, Italian [15, 18]: 30
